From patent US20220251096A1, “7,8-DIHYDRO-4H-PYRAZOLO[4,3-c]AZEPINE-6-ONE COMPOUNDS” (Eli Lilly and Company, priority 2019, published 2022) come the findings set out here.

In assay [1] the target is T1, BRD4 (BD1) (Homo sapiens, UniProt O60885).
T1 construct: BRD4 (Bromodomain 1 (BD1) and Bromodomain 2 (BD2)); purchased DiscoverX (BromoKdELECT service)
Description: BromoKdELECT platform assay, BRD4 (BD1). It is filed as binding. The conditions noted are these: 11 points dose-response, mean from a duplicate experiment. The text has this:
(§1) The purpose of this assay is to evaluate the in vitro target engagement and selectivity (https://www.discoverx.com/services/drug-discovery-development-services/epigenetic-profiling/bromoscan-epigenetic-profiling/bromokdelect). Assay measurement is based on the amount of bromodomain captured in test and control samples by using quantitative PCR technology that detects the DNA label associated to bromodomain. Compounds that bind the bromodomain active site prevents its binding to the immobilized ligand and will reduce the amount of bromodomain captured on the solid support. […] Thus, compound activity is monitored by measuring the amount of bromodomain captured in test versus control samples by using qPCR. Binding affinity for test compound-bromodomain interactions are calculated by measuring the amount of bromodomain captured on the solid support as a function of the test compound concentration.
(§2) Binding affinity (Kd) of the compounds of Examples 1 and 2 towards CREBBP, EP300 and BRD4 (Bromodomain 1 (BD1) and Bromodomain 2 (BD2)) are determined in an 11 points dose-response study (See Table 5). Data is represented as a mean from a duplicate experiment.

Assay [2] has as its system MOLM-16. Description: Cell growth inhibition assay, MOLM-16. As to conditions: MOLM16, 168 h; MOLM-16, 7 days. It is filed as cell-based. On the procedure: (§3) Tumor cell lines are plated onto 96-well, black wall poly-D-lysine plates (Corning #354640), and incubated at 37° C., 5% CO2 for 18-24 hours. Compound was added at 1:3 dilutions in DMSO and cells were incubated at 37° C., 5% CO2 for 7 days. For adherent cell lines, cells were fixed and stained with propidium iodide and scanned on Acumen (channel 3 setting). For suspension cell lines, cell growth was monitored using Cell Titer-Glo reagent.

Assay [3] relates to EOL-1. Description: Cell growth inhibition assay, EOL-1. It is filed as cell-based. As to conditions: Homo sapiens, EOL1, 168 h; EOL-1, 7 days. On the procedure: as §3
In assay [4] the test system is KG-1. Description: Cell growth inhibition assay, KG-1. Type of assay: cell-based. The conditions noted are these: Homo sapiens, 168 h; KG-1, 7 days. On the procedure: as §3
Assay [5] relates to KG-1a. Description: Cell growth inhibition assay, KG-1a. Type of assay: cell-based. As to conditions: Homo sapiens, 168 h, 7 days. On the procedure:
as §3

Assay [6] relates to HL-60. Briefly: Cell growth inhibition assay, HL-60. It is filed as cell-based. The conditions noted are these: Homo sapiens, 168 h; HL-60, 7 days. On the procedure: as §3
Assay [7] relates to THP-1. Briefly: Cell growth inhibition assay, THP-1. As to conditions: Homo sapiens, 168 h; THP-1, 7 days. It is filed as cell-based. On the procedure:
as §3

Assay [8] concerns 22Rv1 prostate cancer cells. Briefly: Cell proliferation assay in 22Rv1. It is filed as cell-based. As to conditions: 22Rv1, 7 days. On the procedure:
The purpose of the following cell proliferation assay is to detect whether the compound of Example 2 and combinations thereof have an effect on cell proliferation.
22Rv1 (purchased from ATCC CRL-2505) cells are seeded at a density of 1,000 cells per well in RMPI 10% FBS (20 μL volume) into a clear bottom 384-well cell culture plate. The plate is incubated at 37° C. and 5% CO2. The cells are dosed the following day with the compound of Example 2 and the compound of Example 2 in combination with the known anti-cancer therapeutics found in the table below. An Echo 555 acoustic dispenser is used to prepare serial dilutions (1:3) of the compound of Example 2, and combinations thereof, in concentrations ranging from 60 μM to 0.003 μM. The cells are then dosed by addition of 5 μL from the serial dilution plate to the cell plate, producing a final DMSO concentration of 0.2% with a final concentration dose ranging from 20 μM to 0.001 μM for the compound of Example 2 and combinations thereof.
Media containing 0.2% DMSO is used for the maximum point and 2 μM staurosporine in the growth media containing 0.2% DMSO is used for the minimum point. After dosing with the compound of Example 2 and combinations thereof, the cell plates are incubated at 37° C. and 5% CO2. Seven days after test compound addition, plates are removed from the incubator and cold EtOH (96%, 65 μL) is added to each well. After 30 minutes, the media is removed and RNase (20 μL, 50 μg/mL) (Sigma) and a 1:1000 propidium iodide dilution in PBS are added to each well. The plates are sealed and incubated for 1 hour at room temperature and preserved from light. Plates are then scanned with ACUMEN EXPLORER™ [Laser-scanning fluorescence microplate cytometer manufactured by TTP LABTECH LTD]. The number of 22Rv1 cells is evaluated through an estimated number of cells, calculated through the area parameter (ratio of total area of the total cells population), a designated range of peak intensity of FL-3 (PI), and the mean area of the single cell population defined by perimeter. Data is then processed through an NGR screening tool. Data is analyzed using a 4-parameter nonlinear logistic equation (four-parameter logistic concentration-response curve): Y=bot+[(top−bot)/1+(x/IC50)slope] where Y=% inhibition, X=concentration yielding y % inhibition, “bot”=minimum value of y attained by curve, “top”=maximum value of y attained by curve, and “slope”=steepness of curve at IC50. % Inh=[(median Max−x/median Max−median Min)]·100.

Assay [9] concerns the target T2, BRD4 (BD2) (Homo sapiens, UniProt O60885).
T2 construct: BRD4 (Bromodomain 1 (BD1) and Bromodomain 2 (BD2)); purchased DiscoverX (BromoKdELECT service)
Description: BromoKdELECT platform assay, BRD4 (BD2). Type of assay: binding. The conditions noted are these: 11 points dose-response, mean from a duplicate experiment.
Text: as §1, §2

The subject of assay [10] is SKNO-1 (AML1-ETO). Description: Cell growth inhibition assay, SKNO-1 (AML1-ETO). Type of assay: cell-based. The conditions noted are these: 168 h, 7 days. On the procedure: as §3
The target of assay [11] is T3, BRD4 (BD1, BD2) (Homo sapiens, UniProt O60885).
T3 construct: BRD4 (Bromodomain 1 (BD1) and Bromodomain 2 (BD2)); purchased DiscoverX (BromoKdELECT service)
Description: BromoKdELECT platform assay, BRD4 (BD1, BD2). It is filed as binding. As to conditions: 11 points dose-response, mean from a duplicate experiment.
Text: as §1, §2

The subject of assay [12] is GDM1. Briefly: Cell growth inhibition assay, GDM1. It is filed as cell-based. The conditions noted are these: Homo sapiens, GDM-1, 168 h; GDM1, 7 days. On the procedure: as §3
Assay [13] concerns NCI-H211. Briefly: Cell growth inhibition assay, NCI-H211. It is filed as cell-based. The conditions noted are these: Homo sapiens, 168 h; NCI-H211, 7 days. On the procedure: as §3
Assay [14] concerns NCI-H1048. Briefly: Cell growth inhibition assay, NCI-H1048. It is filed as cell-based. The conditions noted are these: Homo sapiens, 168 h; NCI-H1048, 7 days. On the procedure: as §3

Where “and” joins values, the source holds several entries; their conditions need not be identical. Identical values can stand only once.

Turning to `CCNC(=O)c1ccc(-c2cc3cccc(-c4nn(C)c5c4CN(C)C(=O)CC5)c3cn2)cn1` [Example 2, 5-[8-(1,5-Dimethyl-6-oxo-7,8-dihydro-4H-pyrazolo[4,3-c]azepin-3-yl)-3-isoquinolyl]-N-ethyl-pyridine-2-carboxamide], the results for the Kd in assay [1], in assay [9] and in [11] were 2.65 µM, 6.8 µM and 7.4 µM, respectively. The IC50 in [2] turned out to be 0.129 µM; in assay [3] it was 0.001 µM; in assay [4], 0.083 µM; in assay [5], 0.002 µM; in [6], 0.328 µM; in assay [7], 0.029 µM. Further, the IC50 amounted to 0.018 µM in [10], 0.28 µM in assay [12], 0.065 µM in assay [13] and 0.018 µM in assay [14]. The “Cell Proliferation % Inhibition” value in assay [8] (single agent at 120 nM, 0.12 µM) was 9.62%; in assay [8] (single agent at 370 nM, 0.37 µM) it was 18.68% and 31.53%. Besides, the inhibition at 0.12 µM in assay [8] (Homo sapiens, 22Rv1, 168 h, single agent at 120 nM) was 17.4%. The inhibition at 0.37 µM in [8] (Homo sapiens, 22Rv1, 168 h, single agent at 370 nM) was found to be 35.4%. The inhibition at 0.74 µM in assay [8] (Homo sapiens, 22Rv1, 168 h, single agent at 740 nM) stood at 12.2%. Besides, the inhibition at 2.2 µM in assay [8] (Homo sapiens, 22Rv1, 168 h, single agent at 2.2 μM) was 19.3%. Besides, in assay [8] (Homo sapiens, 22Rv1, 168 h, single agent at 3.3 μM), the inhibition at 3.3 µM was 46.3%.

Usually Kd stands for the free concentration of one partner at which half of the binding sites on the other are occupied at equilibrium, for simple one-to-one binding. A high value points to lower affinity. A word on the IC50: it is the concentration needed to halve the response being measured. High values mean weaker potency, low ones greater potency. The inhibition is the change of the read-out against control, counted positive when it falls.
